Assay results reported in US20080085879A1, “METHODS OF TREATING ESTROGEN-RESPONSIVE CONDITIONS BY ORPHAN NUCLEAR RECEPTOR ACTIVATION” (University of Pittsburgh - Of the Commonwealth System of …, priority 2006, published 2008).
Entries after “also recorded” stand apart in the source; their conditions may differ. Values belong to the compound of their own block, whether it stands above or below them.

Tests used:
[1] = test system: estrogen sulfotransferase (EST); assay: EST mRNA expression in mouse tissues (Northern blot, real-time PCR) after agonist treatment; assay type: in vivo; details: for EST mRNA expression in liver: wild-type mice, compared to control (DMSO)
Description: Transgenic mice, having a mixed background of C57BL/6J and 129/SvImJ, were created expressing activated LXRa in the liver under the control of the fatty acid binding protein (FABP) promoter. (FIG. 1) EST levels in liver cells of the transgenic mice were compared to wild-type mice using Northern blot analysis and real-time PCR, as described in Gong, H. et al. Mol. Endocrinol. 20:279-290 (2006) and Zhou, J. et al. J Biol Chem. 281: 15013-15020 (2006), respectively.
Wild-type mice were treated with LXR agonists TO1317 (T0901317) or 22(R)-hydroxycholesterol (FIG. 1a), and EST levels were compared to DMSO-treated control mice as described above.
LXRα and LXRβ double knockout (LXR DKO) mice were created as described in Peet, D. J. et al., Cell 93:693-704 (1998).

EST = EST mRNA expression in primary human hepatocytes (RT-PCR); assay type: cell-based; details: compared to DMSO control
Description: Expression of EST MRNA was measured as described above in human hepatocytes and in human breast cancer line MCF7.

CYP3A (PXR target gene) = assay: CYP3A expression in mouse liver (Northern blot); assay type: in vivo
[2] = test system: uterine epithelial proliferation; assay: Uterine estrogen response: epithelial proliferation by BrdU labeling in ovariectomized mice; assay type: in vivo, mouse
[3] = test system: estrogen-responsive uterine genes (Pgr, c-fos, Igf-1, Txnip); assay: Estrogen-responsive uterine gene expression by real-time PCR in ovariectomized mice; assay type: in vivo, mouse
LXRα = molecular target: T1, LXRα (Mus musculus, UniProt Q9Z0Y9); assay: mEst promoter luciferase reporter assay in HepG2 cells co-transfected with LXRα; assay type: cell-based; details: TO1317 10 μM 24 h
T1 construct: expressed in transfected cells; host or cells: HepG2
T1 sequence (Q9Z0Y9 1-445): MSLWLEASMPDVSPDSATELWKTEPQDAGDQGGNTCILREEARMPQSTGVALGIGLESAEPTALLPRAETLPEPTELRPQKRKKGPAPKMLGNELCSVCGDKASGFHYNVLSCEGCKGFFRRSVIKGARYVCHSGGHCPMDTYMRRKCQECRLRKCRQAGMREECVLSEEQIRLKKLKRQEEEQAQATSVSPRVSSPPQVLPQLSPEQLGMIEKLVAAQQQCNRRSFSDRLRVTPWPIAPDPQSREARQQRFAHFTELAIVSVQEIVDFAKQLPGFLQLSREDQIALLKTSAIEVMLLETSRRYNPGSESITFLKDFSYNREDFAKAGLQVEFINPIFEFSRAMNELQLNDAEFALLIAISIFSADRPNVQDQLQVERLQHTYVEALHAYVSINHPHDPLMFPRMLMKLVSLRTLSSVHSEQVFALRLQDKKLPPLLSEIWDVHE
Excerpt: (§1) The 4.2-kb (−4164 bp to +46 bp) 5′ regulatory sequences of the mEst gene were cloned by PCR using a template of mEst-containing bacterial artificial chromosome (BAC) clone (ID RP24-571N6) from the Children's Hospital Oakland Research Institute BACPAC Resource Center (Oakland, Calif.). Deletion mutants were generated by PCR-mediated mutagenesis. HepG2 cells were transfected with the reporter constructs and LXRα expression vector in 48-well plates as previously described . Gong, H. et al., Mol. Endocrinol. 20:279-290 (2006) When necessary, cells were treated with TO1317 (10 μM) for 24 h prior to luciferase assay. The transfection efficiency was normalized against the β-gal activities from a co-transfected CMX-β gal vector. The hydrodynamic liver transfection was performed as we previously described. Zhou, J. et al. J Biol Chem. 281: 15013-15020 (2006). EMSA were performed using in vitro transcribed and translated proteins as described previously. Saini, S. P. et al., Hepatology 41:497-505 (2005)

mouse LXRα = molecular target: T2, mouse LXRα (Mus musculus, UniProt Q9Z0Y9); assay: CHIP assay of HA-LXRα recruitment onto the Est promoter in transfected mouse liver; assay type: in vivo; details: wild type mouse liver, TO1317 50 mg/kg i.p.
T2 construct: expressed in transfected cells; host or cells: liver of wild type mice (hydrodynamic transfection in vivo)
T2 sequence (Q9Z0Y9 1-445): T1 sequence (Q9Z0Y9 1-445)
Excerpt: Zhou, J. et al. J Biol Chem. 281: 15013-15020 (2006). […] Zhou, J. et al. J Biol Chem. 281: 15013-15020 (2006).

[4] = test system: mEst 2.1-kb natural promoter; assay: Hydrodynamic liver transfection of Est promoter reporter; assay type: in vivo
Excerpt: as §1

[5] = MCF-7/VEGF breast tumor xenograft in ovariectomized nude mice; assay type: in vivo, mouse
Excerpt: (§2) Ovariectomized nude mice were purchased from Taconic (Germantown, N.Y.). ER-positive and estrogen responsive breast cancer MCF-7 cells were used. The MCF-7 cells were MCF-7/VEGF cells that overexpress the vascular endothelial growth factor (VEGF), rather than parent MCF-7 cells. […] Guo, P. et al., Cancer Res. 63:4684-4691 (2003).
(§3) MCF-7 breast tumors were established in the mammary fat pads of ovariectomized female nude mice as described previously. Briefly, 1×10^7 of MCF-7/VEGF cells were inoculated into the mammary fat pads of 8-week old ovariectomized female nude mice that were implanted with E2 pellets (0.72 mg/60-day release) or placebo pellets (Innovative Research of America, Sarasota, Fla.). The E2-treated mice were randomly divided into two groups, with one group receiving daily treatment of TO1317 (15 mg/kg by gavage) and the other receiving vehicle. The volumes of the tumors were measured using a caliper every five days. Mice were labeled with BrdU 30 min prior to sacrificing. The serum concentrations of E2 were measured using the ACTIVE® ESTRADIOL EIA kit (Diagnostic Systems Laboratories, Webster, Tex.).
(§4) Breast tumors were established as described in Example 4, using MCF-7/VEGF cells.

MCF-7/VEGF cells = assay: as above; assay type: in vivo, mouse
Excerpt: as §2, §3, §4

uterus = assay: Uterotropic bioassay; assay type: in vivo, mouse; details: wild type female mice, E2 5 μg/kg s.c. daily for 3 d
Description: Ovariectomized wild type and VP-LXRα transgenic females were subjected to uterine estrogen response measurements that include epithelial proliferation by BrdU labeling and estrogen responsive gene expression by real-time PCR. Five-week old virgin females were subjected to ovariectomies. Seven days after the surgery, mice were given a single s.c. injection of 17β-estradiol (E2) (25 μg/mouse). 18 h after the E2 injection, mice were given a single i.p. injection of bromodeoxyuridine (BrdU) (60 mg/kg) and sacrificed 2 h after. One uterine horn was harvested for histology and measurement of cell proliferation by BrdU immunostaining (Xie, W., et al., Mol. Endocrinol. 11: 1766-1781 (1997)) and the other was harvested for RNA extraction and gene expression analysis by real-time PCR. In the uterotropic bioassay, 3-week-old virgin female mice received daily s.c. injections of vehicle or E2 (5 μg/kg) for 3 d. Mice were then sacrificed 24 h after the last E2 dose and the uteri were dissected, weighed, and photographed. When necessary, mice were subjected to daily treatment of TO1317 (50 mg/kg, i.p. injection) starting 3 d prior to the E2 treatment and continued until the completion of the experiments.

[6] = ovariectomized wild type female mice

Compound: CC(C)CC[C@@H](O)[C@@H](C)[C@H]1CC[C@H]2[C@@H]3CC=C4C[C@@H](O)CC[C@]4(C)[C@H]3CC[C@]12C [22(R)-hydroxycholesterol]
EST mRNA expression in liver [1]: up-regulated

EST expression in PXR−/− mice ([1]; PXR−/− mice, liver): still induced
EST mRNA induction in human hepatocytes (EST): increased induction
Compound: C[C@@H]1C[C@H]2[C@@H]3CCC4=CC(=O)C=C[C@]4(C)[C@@]3(F)[C@@H](O)C[C@]2(C)[C@@]1(O)C(=O)CO [dexamethasone]

Compound: CC(=O)[C@H]1[C@H](C#N)C[C@H]2[C@@H]3CC=C4C[C@@H](O)CC[C@]4(C)[C@H]3CC[C@@]21C [PCN, pregnenolone-16alpha-carbonitrile]
CYP3A expression (CYP3A (PXR target gene)): induced

EST levels in LXR DKO mice ([1]; LXRα and LXRβ double knockout mice, compared with control mice): no increase
EST expression in testis ([1]; testis of male mice): not observed
EST mRNA expression in liver [1]: up-regulated
activation of mutant variant of tk-Est/DR-4 reporter (LXRα; LXRα): not
activation of tk-Est/DR-4 reporter (LXRα; LXRα): activated
activation of 4.2-kb mEst promoter luciferase reporter (LXRα; wild type LXRα): activated
recruitment of HA-LXRα onto the Est promoter (CHIP) (mouse LXRα): resulted in the recruitment
Compound: O=S(=O)(c1ccccc1)N(CC(F)(F)F)c1ccc(C(O)(C(F)(F)F)C(F)(F)F)cc1 [TO1317]
TO1317 effect on the E2 response (BrdU labeling) in EST null mice ([2]; EST null mice): abolished
E2 effect on uterine BrdU labeling ([2]; ovariectomized wild type mice, TO1317 50 mg/kg i.p. daily pre-treatment, E2 25 μg/mouse s.c.): compromised
basal proliferation (BrdU labeling) ([2]; treatment alone, in the absence of E2): little effect
TO1317 effect on E2-responsive gene expression in EST null mice ([3]; EST null mice, uterus): abolished
E2 effects on the expression of E2-responsive genes (Pgr, c-fos, Igf-1, Txnip) ([3]; TO1317-treated ovariectomized wild type mice, uterus): abolished
activation of 2.1-kb natural Est promoter transfected into mouse liver [4]: activated
hepatic EST expression in nude mice ([5]; TO1317-treated vs mock-treated nude mice (data not shown)): significantly induced
circulating E2 levels ([5]; tumor bearing mice, TO1317 15 mg/kg by gavage daily): decreased
tumor cell BrdU labeling index (MCF-7/VEGF cells; E2-induced tumors, TO1317 15 mg/kg by gavage daily): decreased
E2-enhanced tumor growth (tumor volume) (MCF-7/VEGF cells; E2 pellets, TO1317 15 mg/kg by gavage daily vs vehicle, 15 mg/kg): inhibited; also recorded: significantly attenuated

Compound: C[C@]12CC[C@@H]3c4ccc(O)cc4CC[C@H]3[C@@H]1CC[C@@H]2O [E2, 17β-estradiol]
uterine BrdU labeling ([2]; ovariectomized wild type mice, E2 25 μg/mouse s.c.): increased
mRNA expression of Pgr, c-fos and Igf-1 in uterus [3, 6]: induced
mRNA expression of Txnip in uterus [3, 6]: suppressed
uterotropic effect (uterine enlargement, water imbibition) (uterus): typical uterine enlargement
